Data reported in patent US20220062299A1, “USE OF GLUCOCORTICOID STEROIDS IN PREVENTING AND TREATING CONDITIONS OF MUSCLE WASTING, AGING AND METABOLIC DISORDER” (NORTHWESTERN UNIVERSITY, priority 2018, published 2022).

Tested on: Klf15, Mef2C, Foxo3 loci in mdx muscle
Test: H3K27ac ChIP-seq on myofibers integrated with RNA-seq of mdx muscle
Type: in vivo, mouse
Protocol: H3K27ac ChIP-seq on muscle myofibers. Freshly-isolated whole quadriceps muscles (both per mouse) were finely minced and digested in 10 ml/muscle of PBS supplemented with 1 mM CaCl2 and 100 U/ml collagenase II (Cat #17101, Life Technologies, Grand Island, N.Y.) at 37° C. for 1 hour with shaking. The suspension was then filtered through a 40 μm strainer (Cat #22363547, Fisher Scientific, Waltham, Mass.) and the unfiltered fraction (enriched in myofibers) was kept for further steps. Separation of mononuclear fraction in the filtered fraction was confirmed at the microscope. Myofibers were fixed in 10 ml 1% PFA for 30 minutes at room temperature with gentle nutation. Fixation was quenched 1 ml of 1.375M glycine (Cat #BP381-5, Fisher Scientific, Waltham, Mass.) with gentle nutation for 5 minutes at room temperature. After centrifugation at 3000 g for 5 minutes, myofibers were lysed in 1.4 ml lysis buffer with approximately 25 μl 2.3 mm zirconia/silica beads (Cat #11079125z, BioSpec, Bartlesville, Okla.). Lysis buffer consisted of 10 mM HEPES (pH 7.3; Cat #H3375), 10 mM KCl (Cat #P9541), 5 mM MgCl2 (Cat #M8266), 0.5 mM DTT (Cat #646563), 3 μg/ml cytochalasin B (C6762; all reagents from Sigma, St. Louis, Mo.); protease inhibitor cocktail (Cat #11852700, Roche, Mannheim, Germany)). Myofibers were them homogenized by means of Mini-BeadBeater-16 (Cat #607, Biospec, Bartlesville, Okla.) for 30 sec, then by rotating at 4° C. for 30 minutes. […] DNA was purified using the MinElute purification kit (cat #28004; Qiagen, Hilden, Germany), quantitated using Qubit reader and reagents. Library preparation and sequencing were conducted at the NU Genomics Core, using TrueSeq ChiP-seq library prep (with size exclusion) on 5 ng chromatin per ChIP sample or pooled input, and HiSeq 50 bp single-read sequencing (approximately 60 million read coverage per sample). […]

C[C@]12C=CC(=O)C=C1CC[C@@H]1[C@@H]2C(=O)C[C@@]2(C)[C@H]1CC[C@]2(O)C(=O)CO [prednisone, Prednisone]
Foxo3 and other muscle atrophy factors (daily prednisone): upregulation | levels of Klf15 and Mef2C (daily prednisone): reduced | H3K27ac marks and transcription of Klf15 and Mef2C (weekly prednisone): increased
